The structures appear in SMILES notation.

Data set [1] deals with Mus musculus. Description: Toxicity in wild-type littermates mouse olfactory mucosa assessed as epithelium loss measured as intact olfactory epithelium at 50 mg/kg, ip by hematoxylin/eosin staining. The settings on record: in vivo. Details: dose 50 mg/kg, route intraperitoneal. In kind it is organism-based.
For data set [2], the system named is Mus musculus. Description: Toxicity in Cyp2a5-null B6 mouse olfactory mucosa assessed as depletion of nonprotein sulfhydryl at 50 mg/kg, ip at 2 hrs relative to vehicle treated control. The note with it: in vivo. The class given is organism-based. The arrangement: dose 50 mg/kg, route intraperitoneal.
Data set [3] relates to Mus musculus. Description: Toxicity in wild-type B6 mouse olfactory mucosa assessed as depletion of nonprotein sulfhydryl at 50 mg/kg, ip at 2 hrs relative to vehicle treated control. In kind it is organism-based. Details: dose 50 mg/kg, route intraperitoneal. The settings on record: in vivo.
In data set [4] the test system is Mus musculus. Description: Toxicity in wild-type mouse olfactory mucosa assessed as epithelium loss at 50 mg/kg, ip by hematoxylin/eosin staining. The arrangement: dose 50 mg/kg, route intraperitoneal. The note with it: in vivo. In kind it is organism-based.
For data set [5], the system named is Mus musculus. Description: Toxicity in wild-type mouse olfactory mucosa assessed as abnormal nasal cavity and epithelium at 50 mg/kg, ip by hematoxylin/eosin staining. The class given is organism-based. The arrangement: dose 50 mg/kg, route intraperitoneal. The settings on record: in vivo.
In data set [6] the test system is Mus musculus. Description: Toxicity in wild-type mouse olfactory mucosa assessed as detached epithelium from basement membrane, fractured and disorganized at 50 mg/kg, ip by hematoxylin/eosin staining. The class given is organism-based. The arrangement: dose 50 mg/kg, route intraperitoneal. The settings on record: in vivo.
In data set [7] the test system is Mus musculus. Description: Toxicity in Cyp2a5-null B6 mouse olfactory mucosa assessed as attached epithelium from basement membrane at 50 mg/kg, ip by hematoxylin/eosin staining. In kind it is organism-based. The arrangement: dose 50 mg/kg, route intraperitoneal. The note with it: in vivo.
Data set [8] deals with Mus musculus. In words: Toxicity in Cyp2a5-null B6 mouse olfactory mucosa assessed as abnormal nasal cavity and epithelium at 50 mg/kg, ip by hematoxylin/eosin staining. The class given is organism-based. The arrangement: dose 50 mg/kg, route intraperitoneal. The note with it: in vivo.
In data set [9] the test system is Mus musculus. In words: Toxicity in Cyp2a5-null B6 mouse olfactory mucosa assessed as epithelium loss measured as intact olfactory epithelium at 50 mg/kg, ip by hematoxylin/eosin staining. The class given is organism-based. Details: dose 50 mg/kg, route intraperitoneal. The settings on record: in vivo.
Data set [10] concerns Mus musculus. Description: Toxicity in wild-type B6 mouse olfactory mucosa assessed as epithelium loss measured as intact olfactory epithelium at 50 mg/kg, ip by hematoxylin/eosin staining. The arrangement: dose 50 mg/kg, route intraperitoneal. The class given is organism-based. The settings on record: in vivo.
Data set [11] in a line: Drug metabolism in wild-type mouse olfactory mucosa microsomes assessed as rate of disappearance of compound at 5 uM after 15 mins. In kind it is ADME. The settings on record: read-out: Drug metabolism.
Data set [12] in a line: Drug metabolism in Cyp2a5-null B6 mouse olfactory mucosa microsomes assessed as rate of disappearance of compound at 5 uM after 15 mins. The note with it: B6 (C57BL/6), read-out: Drug metabolism. The class given is ADME.

For `Cn1cc[nH]c1=S` [METHIMAZOLE], the Activity with Mus musculus [1] is reported as 39.8%; with Mus musculus [2] it was 41.5%; in the data set with Mus musculus [3] it was 51.8%; in the data set on Mus musculus [4], “Toxic”; in the data set with Mus musculus [5], “Toxic”; in the data set with Mus musculus [6], “Toxic”. For the same compound, the Activity entry with Mus musculus [7] was “Non-toxic”; in the data set on Mus musculus [8], “Non-toxic”; in the data set on Mus musculus [9], 60.9%; in the data set on Mus musculus [10], 14.6%. Further, the metabolised at 0.25 h, 5 µM in data set [11] is 58.7%; in [12], 28.7%.

For the origin of these results see ChEMBL document CHEMBL3525940, “The tissue-specific toxicity of methimazole in the mouse olfactory mucosa is partly mediated through target-tissue metabolic activation by CYP2A5” (Drug Metab Dispos, 2011).
